Reference: US11464763B2, “Parasiticidal compositions comprising an isoxazoline active agent, methods and uses thereof” (BOEHRINGER INGELHEIM ANIMAL HEALTH USA INC., priority 2011, dated 2022)
In brackets after ≈: the same amount, converted by molar mass.

What was measured:
[1] = test system: Sarcoptes scabiei var. bovis; assay: Pour-on efficacy against Sarcoptes scabiei var. bovis (mange mites) in cattle (Example 17); format: in vivo; settings: for % Reduction: live mite counts in scrapings
Description: The efficacy of two pour-on formulations of the invention comprising isoxazoline Compound A at doses of 2.5 mg/kg and 10 mg/kg were tested against natural and induced infestations with Sarcoptes scabiei var. bovis (mange mites) in cattle compared with an untreated control. Four healthy head of cattle weighing between 100 to 300 kg were used in each study group. Cattle in Group 1 were untreated (control). Cattle in Group 2 were treated on Day 0 with a pour-on formulation comprising Compound A at a concentration of 2.5% (w/v) in DES at a dose of 2.5 mg/kg; and cattle in Group 3 were treated on Day 0 with a pour-on formulation comprising Compound A at a concentration of 10% (w/v) in DES at a dose of 10 mg/kg. The formulation was applied by measuring the required amount of the solution into a marked disposable syringe and applying the material evenly along the mid-line of the back of each animal from the withers to the tail head.
Live (motile) Sarcoptes scabiei var. bovis (mange mites) were counted on days 7, 14, 20, 27, 34, 41, 48 and 55 in scrapings collected from the edges of active lesions or, if lesions regressed during the study, from the area where active lesions were at the commencement of the study. Scrapings were made from six sites with an area of at least 3 cm×3 cm in size on each animal. Tables 18A and 18B below show the efficacy of the two pour-on formulations against Sarcoptes scabiei var. bovis over 56 days. […] The long lasting efficacy of the pour-on formulations of the invention against Sarcoptes scabiei var. bovis from one topical treatment is unexpected and surprising.

[2] = test system: Rhipicephalus (Boophilus) microplus; assay: Pour-on tick weight efficacy against Rhipicephalus (Boophilus) microplus in cattle (Example 15); format: in vivo
Description: (§1) The efficacy of two pour-on formulations of the invention comprising Compound A at doses of 2.5 mg/kg and 10 mg/kg were tested against infestations of Rhipicephalus (Boophilus) microplus ticks compared with an untreated control. Five healthy head of cattle of 6 to 15 months of age weighing between 100 to 200 kg were used in each study group. Cattle in Group 1 were untreated (control). Cattle in Group 2 were treated on Day 0 with a pour-on formulation comprising Compound A at a concentration of 2.5% (w/v) in DES at a dose of 2.5 mg/kg; and cattle in Group 3 were treated on Day 0 with a pour-on formulation comprising Compound A at a concentration of 10% (w/v) in DES at a dose of 10 mg/kg. Several weeks before treatment, cattle are infested three times a week with approximately 2500 Rhipicephalus (Boophilus) microplus larvae to establish ongoing infestations. Cattle in Groups 2 and 3 were treated with the respective compositions on Day 0 by measuring the required amount of the solution into a marked disposable syringe and applying the material evenly along the mid-line of the back of each animal from the withers to the tail head.
(§2) Each animal was challenged by infestation with approximately 5000 R. microplus larvae on Days 7 and 21 and every 14 days thereafter. Ticks dropping from each animal in the previous 24 hours were collected daily and counted from Day 1 until the end of the study. Since the life cycle of the ticks from the point of infestation with larvae until engorged ticks fall off is approximately 21 days (average), the assessment of efficacy for the challenges on Days 7 and 21 and every 14 days thereafter, was done for a range of 7 or 8 days starting approximately 21 days after the challenge. The assessment of efficacy at the beginning of the study was done from day 1 until Day 21.
(§3) In addition, the ticks collected were weighed as a group to measure the impact of the treatment on the weight gain of the ticks compared to the control to assess the vitality and reproductive capability of the treated ticks. […] Tables 16A and 16B show the % efficacy of the two pour-on formulations based on the weight of the ticks collected. […] As evidenced from the tables and the figures, the pour-on formulations of the invention at both 2.5 mg/kg and 10 mg/kg provide excellent efficacy against Rhipicephalus (Boophilus) microplus ticks for an extended period of time. […] Furthermore, as shown in Tables 16A and 16B, the two pour-on compositions were extremely effective against ticks based on the weight of the ticks collected. […] The extremely long lasting efficacy above 90% for pour-on composition against Rhipicephalus (Boophilus) microplus ticks is remarkable compared with pour-on formulations known in the art.

[3] = test system: Rhipicephalus (Boophilus) microplus; assay: Pour-on tick count efficacy against Rhipicephalus (Boophilus) microplus in cattle (Example 15); format: in vivo
Description: as §1, §2, §3

[4] = test system: R. sanguineus; assay: Efficacious plasma concentration (EC90) against R. sanguineus ticks in dogs (Example 13); format: in vivo, Rhipicephalus sanguineus; settings: for EC90 (concentration required to achieve 90% efficacy): plasma concentration
[5] = Group 2: pour-on 2.5% (w/v) in DES, 2.5 mg/kg, Day 1-21
[6] = Group 2: pour-on 2.5% (w/v) in DES, 2.5 mg/kg, Day 28-34, Challenge Day 7
[7] = Group 2: pour-on 2.5% (w/v) in DES, 2.5 mg/kg, Day 41-48, Challenge Day 21
[8] = Group 2: pour-on 2.5% (w/v) in DES, 2.5 mg/kg, Day 55-62, Challenge Day 35
[9] = Group 2: pour-on 2.5% (w/v) in DES, 2.5 mg/kg, Day 69-76, Challenge Day 49
[10] = Group 2: pour-on 2.5% (w/v) in DES, 2.5 mg/kg, Day 83-90, Challenge Day 63
[11] = Group 2: pour-on 2.5% (w/v) in DES, 2.5 mg/kg, Day 97-104, Challenge Day 77
[12] = Group 2: pour-on 2.5% (w/v) in DES, 2.5 mg/kg, Day 111-118, Challenge Day 91
[13] = Group 2: pour-on 2.5% (w/v) in DES, 2.5 mg/kg, Day 132-139, Challenge Day 112
[14] = Group 2: pour-on 2.5% (w/v) in DES, 2.5 mg/kg, Day 146-153, Challenge Day 126
[15] = Group 2: pour-on 2.5% (w/v) in DES, 2.5 mg/kg, Day 160-167, Challenge Day 140
[16] = Group 3: pour-on 10% (w/v) in DES, 10 mg/kg, Day 1-21
[17] = Group 3: pour-on 10% (w/v) in DES, 10 mg/kg, Day 28-34, Challenge Day 7
[18] = Group 3: pour-on 10% (w/v) in DES, 10 mg/kg, Day 41-48, Challenge Day 21
[19] = Group 3: pour-on 10% (w/v) in DES, 10 mg/kg, Day 55-62, Challenge Day 35
[20] = Group 3: pour-on 10% (w/v) in DES, 10 mg/kg, Day 69-76, Challenge Day 49
[21] = Group 3: pour-on 10% (w/v) in DES, 10 mg/kg, Day 83-90, Challenge Day 63
[22] = Group 3: pour-on 10% (w/v) in DES, 10 mg/kg, Day 97-104, Challenge Day 77
[23] = Group 3: pour-on 10% (w/v) in DES, 10 mg/kg, Day 111-118, Challenge Day 91
[24] = Group 3: pour-on 10% (w/v) in DES, 10 mg/kg, Day 132-139, Challenge Day 112
[25] = Group 3: pour-on 10% (w/v) in DES, 10 mg/kg, Day 146-153, Challenge Day 126
[26] = Group 3: pour-on 10% (w/v) in DES, 10 mg/kg, Day 160-167, Challenge Day 140

O=C(CNC(=O)c1ccc(C2=NOC(c3cc(Cl)cc(C(F)(F)F)c3)(C(F)(F)F)C2)c2ccccc12)NCC(F)(F)F (stereo not shown) [Compound A, 4-[5-[3-chloro-5-(trifluoromethyl)phenyl]-4,5-dihydro-5-(trifluoromethyl)-3-isoxazolyl]-N-[2-oxo-2-[(2,2,2-trifluoroethyl)amino]ethyl]-1-naphthalanecarboxamide]
efficacy against Sarcoptes scabiei var. bovis ([1]; 10% (w/v) formulation, day 14 through day 55): 100% | efficacy against Sarcoptes scabiei var. bovis ([1]; both pour-on formulations, starting on day 7 through at least day 56): higher than 95% | % Reduction ([1]; Group 2: pour-on 2.5% (w/v) in DES, 2.5 mg/kg, Day 7): 96.7% | % Reduction ([1]; Group 2: pour-on 2.5% (w/v) in DES, 2.5 mg/kg, Day 14): 98.2% | % Reduction ([1]; Group 2: pour-on 2.5% (w/v) in DES, 2.5 mg/kg, Day 20): 99.6% | % Reduction ([1]; Group 2: pour-on 2.5% (w/v) in DES, 2.5 mg/kg, Day 27): 100% | % Reduction ([1]; Group 2: pour-on 2.5% (w/v) in DES, 2.5 mg/kg, Day 34): 100% | % Reduction ([1]; Group 2: pour-on 2.5% (w/v) in DES, 2.5 mg/kg, Day 41): 100% | % Reduction ([1]; Group 2: pour-on 2.5% (w/v) in DES, 2.5 mg/kg, Day 48): 100% | % Reduction ([1]; Group 2: pour-on 2.5% (w/v) in DES, 2.5 mg/kg, Day 55): 100% | % Reduction ([1]; second line of the table, "Group 2", pour-on in DES, Day 7): 96.8% | % Reduction ([1]; second line of the table, "Group 2", pour-on in DES, Day 14): 100% | % Reduction ([1]; second line of the table, "Group 2", pour-on in DES, Day 20): 100% | % Reduction ([1]; second line of the table, "Group 2", pour-on in DES, Day 27): 100% | % Reduction ([1]; second line of the table, "Group 2", pour-on in DES, Day 34): 100% | % Reduction ([1]; second line of the table, "Group 2", pour-on in DES, Day 41): 100% | % Reduction ([1]; second line of the table, "Group 2", pour-on in DES, Day 48): 100% | % Reduction ([1]; second line of the table, "Group 2", pour-on in DES, Day 55): 100% | efficacy against Sarcoptes scabiei var. bovis ([1]; lower concentration pour-on formulation (Group 2), day 27 through the end of the study): 100% | Average % Efficacy (Tick Weight) [2, 5]: 69.1% | Average % Efficacy (Tick Weight) [2, 6]: 81.8% | Average % Efficacy (Tick Weight) [2, 7]: 72.9% | Average % Efficacy (Tick Weight) [2, 8]: 87.7% | Average % Efficacy (Tick Weight) [2, 9]: 84.8% | Average % Efficacy (Tick Weight) [2, 10]: 87.4% | Average % Efficacy (Tick Weight) [2, 11]: 76.0% | Average % Efficacy (Tick Weight) [2, 12]: 74.0% | Average % Efficacy (Tick Weight) [2, 13]: 83.2% | Average % Efficacy (Tick Weight) [2, 14]: 20.6% | Average % Efficacy (Tick Weight) [2, 15]: 63.4% | Average % Efficacy (Tick Weight) [2, 16]: 85.4% | Average % Efficacy (Tick Weight) [2, 17]: 95.2% | Average % Efficacy (Tick Weight) [2, 18]: 98.3% | Average % Efficacy (Tick Weight) [2, 19]: 96.6% | Average % Efficacy (Tick Weight) [2, 20]: 99.2% | Average % Efficacy (Tick Weight) [2, 21]: 98.6% | Average % Efficacy (Tick Weight) [2, 22]: 90.2% | Average % Efficacy (Tick Weight) [2, 23]: 96.0% | Average % Efficacy (Tick Weight) [2, 24]: 92.4% | Average % Efficacy (Tick Weight) [2, 25]: 61.4% | Average % Efficacy (Tick Weight) [2, 26]: 76.3% | Average % Efficacy (Tick Count) [3, 5]: 58.8% | Average % Efficacy (Tick Count) [3, 6]: 75.6% | Average % Efficacy (Tick Count) [3, 7]: 77.0% | Average % Efficacy (Tick Count) [3, 8]: 91.2% | Average % Efficacy (Tick Count) [3, 9]: 88.3% | Average % Efficacy (Tick Count) [3, 10]: 90.7% | Average % Efficacy (Tick Count) [3, 11]: 79.8% | Average % Efficacy (Tick Count) [3, 12]: 79.0% | Average % Efficacy (Tick Count) [3, 13]: 86.2% | Average % Efficacy (Tick Count) [3, 14]: 30.3% | Average % Efficacy (Tick Count) [3, 15]: 74.0% | Average % Efficacy (Tick Count) [3, 16]: 78.1% | Average % Efficacy (Tick Count) [3, 17]: 92.0% | Average % Efficacy (Tick Count) [3, 18]: 98.0% | Average % Efficacy (Tick Count) [3, 19]: 97.8% | Average % Efficacy (Tick Count) [3, 20]: 99.3% | Average % Efficacy (Tick Count) [3, 21]: 98.9% | Average % Efficacy (Tick Count) [3, 22]: 92.4% | Average % Efficacy (Tick Count) [3, 23]: 96.6% | Average % Efficacy (Tick Count) [3, 24]: 92.4% | Average % Efficacy (Tick Count) [3, 25]: 72.4% | Average % Efficacy (Tick Count) [3, 26]: 85.8% | tick count efficacy ([3]; pour-on 2.5 mg/kg and 10 mg/kg, for at least day 139): above 90% | concentration required to achieve 90% efficacy, lower than the concentration required from oral administration ([4]; dogs, topical vs oral): ~32% | EC90 (concentration required to achieve 90% efficacy) ([4]; oral dosage form): 0.101 µg/mL (≈ 0.161 µM) | EC90 (concentration required to achieve 90% efficacy) ([4]; topical, separate study): 0.069 µg/mL (≈ 0.11 µM)
